Laboratory results published in patent US7563774B2, “Combination of FBPase inhibitors and antidiabetic agents useful for the treatment of diabetes” (Metabasis Therapeutics, Inc., priority 2000, dated 2009).

Tests used:
rat hepatocytes = assay: Glucose production and fructose-1,6-bisphosphate levels in rat hepatocytes (Example D); assay type: cell-based
Experimental: Hepatocytes were prepared from fed Sprague-Dawley rats (250-300 g) according to the procedure of Berry and Friend (Berry, M. N., Friend, D. S., 1969, J. Cell. Biol. 43, 506-520) as modified by Groen (Groen, A. K., Sips, H. J., Vervoom, R. C., Tager, J. M., 1982, Eur. J. Biochem. 122, 87-93). Hepatocytes (75 mg wet weight/mL) were incubated in 1 mL Krebs-bicarbonate buffer containing 10 mM Lactate, 1 mM pyruvate, 1 mg/mL BSA, and test compound concentrations from 0 to 500 μM. Incubations were carried out in a 95% oxygen, 5% carbon dioxide atmosphere in closed, 50-mL Falcon tubes submerged in a rapidly shaking water bath (37° C.). After 1 hour, an aliquot (0.25 mL) was removed, transferred to an Eppendorf tube and centrifuged. 50 μL of supernatant was then assayed for glucose content using a Sigma Glucose Oxidase kit as per the manufacturer's instructions.
Rat hepatocytes were isolated and incubated as described in Example C. Cell extracts, were analyzed for glucose content as described in Example C, and also for fructose 1,6-bisphosphate. Fructose 1,6-bisphosphate was assayed spectrophotometrically by coupling its enzymatic conversion to glycerol 3-phosphate to the oxidation of NADH, which was monitored at 340 nm. Reaction mixtures (1 mL) consisted of 200 mM Tris-HCl, pH 7.4, 0.3 mM NADH, 2 units/mL glycerol 3-phosphate dehydrogenase, 2 units/ml triosephosphate isomerase, and 50-100 μL cell extract. After a 30 minute preincubation at 37° C., 1 unit/ml of aldolase was added and the change in absorbance measured until a stable value was obtained. 2 moles of NADH are oxidized in this reaction per mole of fructose 1,6-bisphosphate present in the cell extract.

Sprague-Dawley rats [1] = assay: Glucose lowering, hepatic and plasma drug levels after intraperitoneal dosing of normal fasted rats (Example F); assay type: in vivo, rat; conditions: 1 hour post injection
Experimental: Sprague-Dawley rats (250-300 g) were fasted for 18 hours and then dosed intraperitoneally either with saline or FBPase inhibitor. The vehicle used for drug administration was 10 mM bicarbonate. One hour post injection, rats were anesthetized with halothane, and liver and blood samples were taken and processed as described in Example E. The neutralized liver extracts were analyzed for FBPase inhibitor content by HPLC. A reverse phase YMC ODS AQ column (250×4.6 […]) was used and eluted with a gradient from 10 mM sodium phosphate pH 5.5 to 75% acetonitrile. Absorbance was monitored at 310 nm. Glucose was measured in the blood sample as described in Example C. Plasma was prepared by centrifugation and extracted by addition of methanol to 60% (v/v). The methanolic extract was clarified by centrifugation and filtration and then analyzed by HPLC as described above.

[2] = tested on: gluconeogenesis in rat hepatocytes; assay: Inhibition of gluconeogenesis in rat hepatocytes (Example C); assay type: cell-based; conditions: Hepatocyte, glucose production from lactate/pyruvate, 1 hour
Experimental: Hepatocytes (75 mg wet weight/mL) were incubated in 1 mL Krebs-bicarbonate buffer containing 10 mM Lactate, 1 mM pyruvate, 1 mg/mL BSA, and test compound concentrations from 0 to 500 μM. […] After 1 hour, an aliquot (0.25 mL) was removed, transferred to an Eppendorf tube and centrifuged. 50 μL of supernatant was then assayed for glucose content using a Sigma Glucose Oxidase kit as per the manufacturer's instructions.

Sprague-Dawley rats [3] = assay: Drug metabolite levels, blood glucose and hepatic fructose 1,6-bisphosphate after Compound A p.o. in rats (Example E); assay type: in vivo, rat
Experimental: Compound A was administered by oral gavage to freely-feeding Sprague Dawley rats (250-300 g). The compound was prepared as a suspension in carboxymethylcellulose, and administered at a dose of 250 mg/kg. For the determination of liver metabolites, rats were serially sacrificed over the course of 24 hours after drug administration. Livers were freeze-clamped, homogenized in perchloric acid, neutralized, and then analyzed for Compound B by anion exchange HPLC.
For the determination of plasma metabolites, rats were instrumented with carotid catheters prior to oral dosing. Blood samples were withdrawn via the catheters at appropriate time points over the course of 8 hours post drug administration. Plasma was prepared from the blood samples by centrifugation, and plasma protein precipitated by the addition of methanol to 60%. Compound A metabolites were quantitated by reverse phase HPLC in the deproteinated plasma samples. A C18 column (1.4 cm×250 mm) was equilibrated with 10 mM sodium phosphate, pH 5.5 and eluted with a gradient from this buffer to acetonitrile. Detection was at 254 nm.
The effect of Compound A on blood glucose and hepatic fructose 1,6-bisphosphate levels was determined in 18-hour fasted Sprague-Dawley rats (250-300 g). Animals were dosed as described above. At appropriate time points post drug administration, rats were anesthetized with halothane and a liver biopsy (approx. 1 g) was taken, as well as a blood sample (2 mL) from the posterior vena cava. A heparin flushed syringe and needle was used for blood collection. The liver sample was immediately homogenized in ice-cold 10% perchloric acid (3 mL), centrifuged, and the supernatant neutralized with ⅓ rd volume of 3 M KOH/[…]. Following centrifugation and filtration, the neutralized extract was analyzed for fructose 1,6-bisphosphate content as described for isolated hepatocytes in Example C. Blood glucose was measured by means of a Hemocue analyzer (Hemocue Inc, Mission Viejo, Calif.).

human liver FBPase = target: T1, human liver FBPase (Homo sapiens, UniProt P09467); assay: Inhibition of human liver FBPase (Example A); assay type: biochemical
T1 construct: made in house; host or cells: E. coli BL21
T1 sequence (P09467 2-338 limits assumed): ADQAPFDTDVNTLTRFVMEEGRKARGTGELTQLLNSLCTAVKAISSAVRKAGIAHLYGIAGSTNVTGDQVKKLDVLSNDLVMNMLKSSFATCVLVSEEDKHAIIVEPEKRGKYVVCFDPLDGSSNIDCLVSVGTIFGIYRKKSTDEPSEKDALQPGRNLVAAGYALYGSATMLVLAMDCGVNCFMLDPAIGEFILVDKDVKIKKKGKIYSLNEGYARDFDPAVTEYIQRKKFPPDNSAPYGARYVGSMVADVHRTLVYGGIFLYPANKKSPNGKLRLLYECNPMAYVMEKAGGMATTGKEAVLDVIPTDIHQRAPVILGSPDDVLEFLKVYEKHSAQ
Experimental: (§1) Enzymatic activity was measured spectrophotometrically in reactions that coupled the formation of product (fructose 6- phosphate) to the reduction of dimethylthiazoldiphenyltetrazolium bromide (MTT) via NADP and phenazine methosulfate (PMS), using phosphoglucose isomerase and glucose 6-phosphate dehydrogenase as the coupling enzymes. […] Inhibitor concentrations were varied from 0.01 μM to 10 μM. Reactions were started by the addition of 0.002 units of pure hlFBPase and were monitored for 7 minutes at 590 nm in a Molecular Devices Plate Reader (37° C.).

rat liver FBPase = target: T2, rat liver FBPase (Rattus norvegicus, UniProt P19112); assay: Inhibition of rat liver FBPase (Example B); assay type: biochemical
T2 construct: made in house; host or cells: E. coli BL21
T2 sequence (P19112 2-363 limits assumed): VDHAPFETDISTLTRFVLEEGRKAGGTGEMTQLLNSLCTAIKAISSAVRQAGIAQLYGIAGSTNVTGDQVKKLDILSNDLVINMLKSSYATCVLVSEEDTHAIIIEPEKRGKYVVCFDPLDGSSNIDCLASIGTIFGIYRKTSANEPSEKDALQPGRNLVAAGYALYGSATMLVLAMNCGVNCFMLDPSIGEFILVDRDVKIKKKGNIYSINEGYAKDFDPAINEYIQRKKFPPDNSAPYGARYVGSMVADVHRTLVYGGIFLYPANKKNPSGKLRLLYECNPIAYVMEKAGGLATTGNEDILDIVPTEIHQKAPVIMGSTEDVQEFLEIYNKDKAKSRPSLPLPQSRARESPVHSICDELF

mouse liver FBPase = target: T3, mouse liver FBPase (Mus musculus, UniProt Q9QXD6); assay: Inhibition of mouse liver FBPase (Example B); assay type: biochemical
T3 construct: This partially purified fraction was used for enzyme assays; from tissue; host or cells: mouse liver (45-75% ammonium sulfate fraction of homogenate)
T3 sequence (Q9QXD6 2-338 limits assumed): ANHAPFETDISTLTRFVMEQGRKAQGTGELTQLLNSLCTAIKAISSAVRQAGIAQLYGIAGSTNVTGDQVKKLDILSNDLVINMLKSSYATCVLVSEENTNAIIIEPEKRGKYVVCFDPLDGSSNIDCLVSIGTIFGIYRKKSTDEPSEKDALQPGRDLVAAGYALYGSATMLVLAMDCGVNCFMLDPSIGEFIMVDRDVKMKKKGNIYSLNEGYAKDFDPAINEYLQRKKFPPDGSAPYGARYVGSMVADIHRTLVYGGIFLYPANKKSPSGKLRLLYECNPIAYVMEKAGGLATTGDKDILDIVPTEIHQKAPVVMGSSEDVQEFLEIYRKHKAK
Experimental: as §1
Mouse liver FBPase was obtained by homogenizing freshly isolated mouse liver in 100 mM Tris-HCl buffer, pH 7.4, containing 1 mM EGTA, and 10% glycerol. […] This fraction was redissolved in the homogenization buffer and desalted on a PD-10 gel filtration column (Biorad) eluted with same. This partially purified fraction was used for enzyme assays.

Sprague Dawley rats = assay: Oral glucose lowering in overnight fasted Sprague Dawley rats (Example G); assay type: in vivo, rat; conditions: 4 h
Experimental: Oral efficacy of Compound J was assessed in overnight fasted Sprague Dawley rats. […] At 1.5 h or 4 h post drug administration, a blood sample was taken from the tail vein and analyzed for blood glucose by means of an automated glucose analyzer (HemoCue, HemoCue Inc, Mission Viejo, Calif.).

db/db mice = assay: Glucose lowering in the db/db mouse (Example V); assay type: in vivo; conditions: last treatment day (day 18)
Experimental: Treatment was for 18 days. […] Differences between groups were evaluated by the Student's t-test. Results are considered significant with p<0.05.

[4] = tested on: Zucker Diabetic Fatty (ZDF) rat; assay: Glucose lowering in the ZDF rat (Example W); assay type: in vivo
Description: The Zucker Diabetic Fatty (ZDF) rat is widely used as a model for human NIDDM as the progression of the disease in these rodents is similar to that described for human […] patients. […] Clark J B, Palmer C J (1982) Diabetes 30: 126A Terrettaz J, Jeanrenaud B (1983) Endocrinology 112: 1346-1351.

C57BL/KsJ db/db mice [5] = assay: Acute combination treatment of insulin and Compound G in db/db mice (Example Z); assay type: in vivo, mouse
Experimental: Male C57BL/KsJ db/db mice were purchased at 5 weeks of age from Clea Japan, Inc. (Tokyo, Japan). The mice were maintained under standard vivarium conditions (24-26° C., 12-hour light cycle, 12-hour dark cycle) and received standard chow and water ad libitum. At 20 weeks of age, animals were divided into 4 groups (n=6/group). The treatment groups were control, compound G, insulin, and the combination of compound G and insulin. […] Insulin (human recombinant insulin, Penfill R300, Novo Nordisk, Denmark) was injected subcutaneously at a dose of 1.5 U/kg. Food was removed after treatment. Blood glucose levels in tail vein samples were measured by means of a Glucoloader-F, an automatic glucose analyzer, (A&T Co., Ltd., Tokyo, Japan).

C57BL/KsJ db/db mice [6] = assay: Chronic combination treatment of insulin and Compound G in db/db mice (Example AA); assay type: in vivo, mouse; conditions: db/db mice, 3 weeks
Experimental: Male C57BL/KsJ db/db mice were purchased at 5 weeks of age from Clea Japan, Inc. (Tokyo, Japan). The mice were maintained under standard vivarium conditions (24-26° C., 12-hour light cycle, 12-hour dark cycle) and received standard chow and water ad libitum. At 16 weeks of age, animals were divided into 2 groups (n=5 or 9-10/group). Both groups were subcutaneously injected with human recombinant insulin (Penfill N300, Novo Nordisk, Denmark) on a daily basis to adjust plasma glucose levels to the target range of 250 to 300 mg/dL.

[7] = single 250 mg/kg dose p.o., 18-hour fasted rats

SMILES: CCc1cc(F)c(N)c2nc(-c3ccc(P(=O)(O)O)o3)n(CC(C)C)c12 [Compound E]
- intracellular fructose 1,6-bisphosphate (rat hepatocytes): dose-dependent elevation
- Liver conc. (Sprague-Dawley rats [1]): 38.4 nmol/g

SMILES: CC(=O)OC[C@H]1O[C@@H](n2cnc(C(N)=O)c2Br)[C@H](OC(C)=O)[C@@H]1OC(C)=O [Compound A]
- IC50 [2]: 50 µM
- intracellular fructose 1,6-bisphosphate (rat hepatocytes): dose-dependent elevation
- IC50 (rat hepatocytes; Hepatocyte, read-out: IC50, inhibition of glucose production): 50 µM
- plasma metabolites (Sprague-Dawley rats [3]; Compound A 250 mg/kg p.o., over 8 hours): rapidly deacetylated at all three positions
- liver metabolites (Sprague-Dawley rats [3]; Compound A 250 mg/kg p.o., over 24 hours): efficiently converted to Compound B
- duration of blood glucose lowering (Sprague-Dawley rats [3]; [7]): approximately 8 hours
- hepatic fructose-1,6-bisphosphate levels (Sprague-Dawley rats [3]; [7]): elevation of hepatic fructose-1,6-bisphosphate levels

SMILES: Nc1ncnc2c1ncn2[C@@H]1O[C@H](COP(=O)(O)O)[C@@H](O)[C@H]1O [AMP]
- IC50 (human liver FBPase): 1.3 µM
- IC50 (rat liver FBPase): 25 µM
- IC50 (mouse liver FBPase): 15 µM

SMILES: CSc1sc(N)nc1-c1ccc(P(=O)(O)O)o1 [Compound G, 2-Amino-5-methylthio-4-[2-(5-phosphono)furanyl]thiazole]
- Glucose Lowering, % (Sprague Dawley rats; Compound G 10 mg/kg p.o.): 48%
- Glucose Lowering, % (Sprague Dawley rats; Compound G 30 mg/kg p.o.): >70%
- blood glucose levels versus control group (db/db mice): significantly lower than those in the control group
- glycemic control [4]: significantly improved glycemic control
- Blood Glucose ([4]; 0.2% food admixture, Day 14): 530 ± 48 mg/dL
- Plasma Glucose, % of pretreatment values (C57BL/KsJ db/db mice [5]; after 1 hour): (84.2 +/− 1.9) %
- Plasma Glucose (C57BL/KsJ db/db mice [5]; after 1 hour, Compound G 200 mg/kg p.o., insulin 1.5 U/kg s.c.): 650.8 ± 14.8 mg/dL
- Plasma Glucose (C57BL/KsJ db/db mice [5]; after 4 hours): 373.7 ± 24.7 mg/dL
- Plasma Glucose, % of pretreatment values (C57BL/KsJ db/db mice [5]; after 4 hours): (48.6 +/− 4.0) %
- Plasma Glucose (C57BL/KsJ db/db mice [5]; after […]): 459.7 ± 11.5 mg/dL
- Plasma Glucose, % of pretreatment values (C57BL/KsJ db/db mice [5]; after […]): (59.6 +/− 2.3) %
- Plasma Glucose (C57BL/KsJ db/db mice [5]; before (0 hour)): 774.0 ± 18.3 mg/dL
- Plasma Glucose, % of pretreatment values (C57BL/KsJ db/db mice [5]; before (0 hour)): (100.0 +/− 0.0) %
- plasma glucose lowering (C57BL/KsJ db/db mice [5]; db/db mice, acute): progressively decreased plasma glucose levels
- insulin dose required to lower plasma glucose to the target range (C57BL/KsJ db/db mice [6]): remarkably decreased the insulin dose required
